Key:
SERCA = settings: cited from earlier work
[1] = system: endoplasmic reticulum [Ca2+] in HEK293 cells expressing D1ER; assay: D1ER calcium FRET sensor, ER calcium content in live cells; type: cell-based, human; settings: 120 min time point
cytosolic calcium = settings: cited from earlier work

## Clc1ccccc1C(c1ccccc1)(c1ccccc1)n1ccnc1 [Clotrimazole, clotrimazole]
SERCA
  SERCA function, earlier report: inhibit SERCA function

## Clc1ccc(COC(Cn2ccnc2)c2ccc(Cl)cc2Cl)c(Cl)c1 (stereo not drawn) [Miconazole]
[1]
  ER calcium depletion (decreased D1ER FRET): largest amount of ER calcium depletion

## Oc1cc(Cl)ccc1Oc1ccc(Cl)cc1Cl [triclosan]
Cytosolic calcium
  cytosolic calcium, earlier report: increase cytosolic calcium

From publication PMC5323330 (SLAS discovery, 2016)
